According to patent publication US20140323521A1, “PHARMACEUTICAL COMPOSITIONS AND ADMINISTRATIONS THEREOF” (Vertex Pharmaceuticals Incorporated, priority 2011, published 2014):

What was measured:
Assay in all cases: FRT cell Ussing chamber chloride transport assay
Format in all cases: cell-based
human CFTR mutant S1251N = molecular target: T1, human CFTR mutant S1251N (Homo sapiens, UniProt P13569, S1251N); details: FRT cells expressing S1251N CFTR
T1 construct: expressed in transfected cells; host or cells: Fisher rat thyroid (FRT) FlpIn cells, pcDNA5/FRT
Text: (§1) DNA cloning: Wild-type CFTR coding region was inserted into pcDNA5/FRT (Invitrogen, San Diego, Calif.) between EcoRV and ApaI.
(§2) Single CFTR gene mutations were introduced into the wild-type CFTR coding sequence by using QuickChange XL site-directed mutagenesis kit (Stratagene, Cambridge, UK). The CFTR coding region as well as its promoter sequence and 3′ untranslated sequence was fully sequenced to confirm the mutagenesis reaction.
(§3) The CFTR gene was stably expressed in Fisher rat thyroid (FRT) cells through FlpIn system. The FRT-FlpIn host cell line was generated by stably transfecting FRT cells with pFRT/lacZeo. The single integration of a FRT site was confirmed by Southern blot. After the mutant CFTR DNA was transfected into the FRT-FlpIn host cell line, the cells were incubate at 37° C. in Coon's modified Ham's F12 containing 10% FBS, 1% Pen/Strep, and 36 ml of Na-Bicarbonate for up to 8 passages under hygromycin selection (200 ug/ml).
(§4) All cells were grown on Costar® Snapwell™ cell culture inserts at maintained at 37° C. prior to recording. The cell culture inserts were mounted into an Ussing chamber (VCC MC8; Physiologic Instruments, Inc., San Diego, Calif.) to record ISC in the voltage-clamp mode (Vhold=0 mV). For FRT cells, the basolateral membrane was permeabilized with 360 μg/ml Nystatin and a basolateral to apical Cl− gradient was established. The basolateral bath solution contained (in mM); 135 NaCl, 1.2 CaCl2, 1.2 MgCl2, 2.4 K2HPO4, 0.6 KHPO4, 10 N-2-hydroxyethylpiperazine-N′-2-ethanesulfonic acid (HEPES), and 10 dextrose (titrated to pH 7.4 with NaOH). The apical NaCl was replaced by equimolar Na+ gluconate (titrated to pH 7.4 with NaOH). For HBE cells, the ISC was measured in the presence of a basolateral to apical Cl− gradient. The normal Cl− solution contained (in mM) 145 NaCl, 3.3 K2HPO4, 1.2 MgCl2, 1.2 CaCl2, 10 Glucose, 10 HEPES (pH adjusted to 7.35 with NaOH) and the low Cl− solution contained (in mM) 145 NaGluconate, 1.2 MgCl2, 1.2 CaCl2, 10 glucose, 10 HEPES (pH adjusted to 7.35 with NaOH). All recordings were digitally acquired using a Acquire and Analyze software (version 2; Physiologic Instruments, Inc. San Diego, Calif.).
(§5) The 10 μM forskolin stimulated response in FRT cell expressing different mutant CFTR forms or in HBE cells isolated from CF patients was normalized to the 10 μM forskolin-stimulated response in FRT cells expressing wild-type CFTR or in HBE isolated from non-CF individuals and expressed as % wild-type CFTR. In HBE, amiloride was added prior to forskolin application to block the epithelial Na+ channel.

human CFTR mutant G551S = molecular target: T2, human CFTR mutant G551S (Homo sapiens, UniProt P13569, G551S); details: FRT cells expressing G551S CFTR
T2 construct: expressed in transfected cells; host or cells: Fisher rat thyroid (FRT) FlpIn cells, pcDNA5/FRT
Text: as §1, §2, §3, §4, §5

human CFTR mutant S1255P = molecular target: T3, human CFTR mutant S1255P (Homo sapiens, UniProt P13569, S1255P); details: FRT cells expressing S1255P CFTR
T3 construct: expressed in transfected cells; host or cells: Fisher rat thyroid (FRT) FlpIn cells, pcDNA5/FRT
Text: as §1, §2, §3, §4, §5

human CFTR mutant S549N = molecular target: T4, human CFTR mutant S549N (Homo sapiens, UniProt P13569, S549N); details: FRT cells expressing S549N CFTR
T4 construct: expressed in transfected cells; host or cells: Fisher rat thyroid (FRT) FlpIn cells, pcDNA5/FRT
Text: as §1, §2, §3, §4, §5

human CFTR mutant S549R = molecular target: T5, human CFTR mutant S549R (Homo sapiens, UniProt P13569, S549R); details: FRT cells expressing S549R CFTR
T5 construct: expressed in transfected cells; host or cells: Fisher rat thyroid (FRT) FlpIn cells, pcDNA5/FRT
Text: as §1, §2, §3, §4, §5

human CFTR mutant G1349D = molecular target: T6, human CFTR mutant G1349D (Homo sapiens, UniProt P13569, G1349D); details: FRT cells expressing G1349D CFTR
T6 construct: expressed in transfected cells; host or cells: Fisher rat thyroid (FRT) FlpIn cells, pcDNA5/FRT
Text: as §1, §2, §3, §4, §5

human CFTR mutant G970R = molecular target: T7, human CFTR mutant G970R (Homo sapiens, UniProt P13569, G970R); details: FRT cells expressing G970R CFTR
T7 construct: expressed in transfected cells; host or cells: Fisher rat thyroid (FRT) FlpIn cells, pcDNA5/FRT
Text: as §1, §2, §3, §4, §5

human CFTR mutant G1244E = molecular target: T8, human CFTR mutant G1244E (Homo sapiens, UniProt P13569, G1244E); details: FRT cells expressing G1244E CFTR
T8 construct: expressed in transfected cells; host or cells: Fisher rat thyroid (FRT) FlpIn cells, pcDNA5/FRT
Text: as §1, §2, §3, §4, §5

human CFTR mutant G178R = molecular target: T9, human CFTR mutant G178R (Homo sapiens, UniProt P13569, G178R); details: FRT cells expressing G178R CFTR
T9 construct: expressed in transfected cells; host or cells: Fisher rat thyroid (FRT) FlpIn cells, pcDNA5/FRT
Text: as §1, §2, §3, §4, §5

T6 sequence (P13569 whole entry G1349D): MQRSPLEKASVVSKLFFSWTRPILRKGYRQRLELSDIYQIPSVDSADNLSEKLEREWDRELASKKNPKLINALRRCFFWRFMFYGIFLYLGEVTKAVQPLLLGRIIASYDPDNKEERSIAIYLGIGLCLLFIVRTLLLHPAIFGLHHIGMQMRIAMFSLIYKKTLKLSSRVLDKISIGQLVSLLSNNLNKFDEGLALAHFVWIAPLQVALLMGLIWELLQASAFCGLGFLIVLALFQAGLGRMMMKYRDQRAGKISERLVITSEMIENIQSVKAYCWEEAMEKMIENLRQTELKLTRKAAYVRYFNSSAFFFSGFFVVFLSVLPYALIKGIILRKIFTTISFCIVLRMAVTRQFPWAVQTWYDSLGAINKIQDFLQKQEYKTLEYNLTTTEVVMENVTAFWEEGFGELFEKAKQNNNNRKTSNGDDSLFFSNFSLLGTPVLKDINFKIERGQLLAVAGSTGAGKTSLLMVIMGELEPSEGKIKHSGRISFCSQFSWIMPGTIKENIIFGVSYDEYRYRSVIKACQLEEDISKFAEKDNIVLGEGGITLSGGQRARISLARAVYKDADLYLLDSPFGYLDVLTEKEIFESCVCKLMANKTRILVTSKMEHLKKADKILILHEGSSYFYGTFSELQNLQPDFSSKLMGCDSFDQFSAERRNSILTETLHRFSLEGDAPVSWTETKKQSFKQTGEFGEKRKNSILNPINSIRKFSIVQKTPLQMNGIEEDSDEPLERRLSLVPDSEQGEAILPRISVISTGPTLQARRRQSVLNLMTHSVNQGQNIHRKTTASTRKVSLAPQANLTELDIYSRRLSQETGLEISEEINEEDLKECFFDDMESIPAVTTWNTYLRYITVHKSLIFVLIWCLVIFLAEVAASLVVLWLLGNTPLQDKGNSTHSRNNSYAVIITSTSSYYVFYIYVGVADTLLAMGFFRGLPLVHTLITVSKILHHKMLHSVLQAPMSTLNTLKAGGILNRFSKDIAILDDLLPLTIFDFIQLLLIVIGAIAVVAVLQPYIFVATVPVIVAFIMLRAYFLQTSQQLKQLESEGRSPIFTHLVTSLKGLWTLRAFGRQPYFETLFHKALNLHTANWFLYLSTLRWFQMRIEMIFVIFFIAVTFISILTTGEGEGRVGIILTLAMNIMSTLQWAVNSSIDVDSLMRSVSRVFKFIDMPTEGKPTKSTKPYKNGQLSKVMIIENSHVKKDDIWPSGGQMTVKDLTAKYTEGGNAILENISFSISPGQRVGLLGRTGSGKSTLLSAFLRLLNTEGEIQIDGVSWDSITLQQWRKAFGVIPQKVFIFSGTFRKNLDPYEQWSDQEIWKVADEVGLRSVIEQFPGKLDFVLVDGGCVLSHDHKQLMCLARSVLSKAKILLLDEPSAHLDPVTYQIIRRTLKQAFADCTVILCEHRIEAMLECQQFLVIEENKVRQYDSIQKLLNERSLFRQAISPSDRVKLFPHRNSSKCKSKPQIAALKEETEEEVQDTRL
T8 sequence (P13569 whole entry G1244E): as the sequence (P13569 whole entry G1349D) above, with G1244E, D1349G counted along it
T2 sequence (P13569 whole entry G551S): as the sequence (P13569 whole entry G1349D) above, with G551S, D1349G counted along it
T4 sequence (P13569 whole entry S549N): as the sequence (P13569 whole entry G1349D) above, with S549N, D1349G counted along it
T1 sequence (P13569 whole entry S1251N): as the sequence (P13569 whole entry G1349D) above, with S1251N, D1349G counted along it
T3 sequence (P13569 whole entry S1255P): as the sequence (P13569 whole entry G1349D) above, with S1255P, D1349G counted along it
T9 sequence (P13569 whole entry G178R): as the sequence (P13569 whole entry G1349D) above, with G178R, D1349G counted along it
T7 sequence (P13569 whole entry G970R): as the sequence (P13569 whole entry G1349D) above, with G970R, D1349G counted along it
T5 sequence (P13569 whole entry S549R): as the sequence (P13569 whole entry G1349D) above, with S549R, D1349G counted along it

- increase in chloride transport, relative to baseline chloride transport (human CFTR mutant S1251N): greater than 10 fold
- increase in chloride transport, relative to baseline chloride transport (human CFTR mutant G551S): greater than 10 fold
- increase in chloride transport, relative to baseline chloride transport (human CFTR mutant S1255P): greater than 10 fold
- increase in chloride transport, relative to baseline chloride transport (human CFTR mutant S549N): greater than 10 fold
- increase in chloride transport, relative to baseline chloride transport (human CFTR mutant S549R): greater than 10 fold
- increase in chloride transport, relative to baseline chloride transport (human CFTR mutant G1349D): greater than 10 fold
- increase in chloride transport, relative to baseline chloride transport (human CFTR mutant G970R): greater than 10 fold
- increase in chloride transport, relative to baseline chloride transport (human CFTR mutant G1244E): greater than 10 fold
- increase in chloride transport, relative to baseline chloride transport (human CFTR mutant G178R): greater than 10 fold
Structure (SMILES): CC(C)(C)c1cc(C(C)(C)C)c(NC(=O)c2c[nH]c3ccccc3c2=O)cc1O [Compound 1, N-[2,4-bis(1,1-dimethylethyl)-5-hydroxyphenyl]-1,4-dihydro-4-oxoquinoline-3-carboxamide]
